Laboratory results: patent publication US20020137929A1, “1 - (3-heterocyclylphenyl) isothiourea, -isourea, -guanidine and -amidine herbicidal agents” (Intellectual Property Department, BASF Aktiengesellschaft, priority 1998, published 2002)

Assays:
[1] = tested on: CYPSE (Flatsedge); experiment: Preemergence weed control under flooded paddy conditions; type: in vivo, Cyperus serotinus; conditions: rated 3-4 weeks after treatment
Outline: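 Ratings on a 0-9 visual scale cover stand, vigor, malformation, size, chlorosis and overall appearance relative to a control, taken three to four weeks post-treatment. Application was into flood water over freshly sown silt loam at roughly 0.0313 to 0.500 kg/ha.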

[2] = tested on: ZEAMX (Corn, Field); experiment: Preemergence herbicidal evaluation; type: in vivo, Zea mays; conditions: rated 4-5 weeks after treatment, rating scale 0-9
Outline: (§1)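 Seeds were planted in potting soil in cups, then sprayed preemergence with the test compound in aqueous acetone at about 0.0156 to 0.500 kg per hectare. Cups were kept under greenhouse conditions and visually rated 4–5 weeks after treatment on a 0–9 scale against an untreated control.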

[3] = tested on: GALAP (Galium); experiment: Postemergence herbicidal evaluation; type: in vivo, Galium aparine; conditions: postemergence
Outline: (§2)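 Two-week-old seedlings sprayed with compound in 50/50 acetone/water plus 0.5% TWEEN 20, at about 0.0156 to 0.500 kg/ha, nozzle at 40 psi. Kept in greenhouse; rated visually 4-5 weeks after treatment on a 0-9 scale versus control, repeat tests averaged.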

[4] = tested on: CYPIR (Rice Flatsedge); experiment: Preemergence weed control under flooded paddy conditions; type: in vivo, Cyperus iria; conditions: rated 3-4 weeks after treatment
Outline: (§3)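 Flooded-pot preemergence screen with silt loam and seeds in the upper 0.5 cm. Dose about 0.0313 to 0.500 kg/ha, delivered into flood water; visual 0-9 score after 3 to 4 weeks.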

[5] = tested on: ORYSAT (Rice, Tebonnet); experiment: Preemergence herbicidal evaluation; type: in vivo, Oryza sativa, (L.) Tebonnet; conditions: rated 4-5 weeks after treatment, rating scale 0-9
Outline: as §1

[6] = tested on: TRZAWR (Wheat, Winter, cv Riband); experiment: Preemergence herbicidal evaluation; type: in vivo, Triticum aestivum; conditions: rated 4-5 weeks after treatment, rating scale 0-9
Outline: as §1

[7] = tested on: ZEAMX (Corn, Field); experiment: Postemergence herbicidal evaluation; type: in vivo, Zea mays; conditions: postemergence
Outline: as §2

[8] = tested on: AMBEL (Ragweed, Common); experiment: Preemergence herbicidal evaluation; type: in vivo, Ambrosia artemisifolia; conditions: rated 4-5 weeks after treatment, rating scale 0-9
Outline: as §1

[9] = tested on: IPOHE (Morningglory, Ivyleaf); experiment: Preemergence herbicidal evaluation; type: in vivo, Ipomoea hederacea; conditions: rated 4-5 weeks after treatment, rating scale 0-9
Outline: as §1

[10] = tested on: CHEAL (Lambsquarters, Common); experiment: Preemergence herbicidal evaluation; type: in vivo, Chenopodium album; conditions: rated 4-5 weeks after treatment, rating scale 0-9
Outline: as §1

[11] = tested on: CASOB (Sicklepod); experiment: Postemergence herbicidal evaluation; type: in vivo, Cassia obtusifolia; conditions: postemergence
Outline: as §2

[12] = tested on: ECHORC (Watergrass (Calif.)); experiment: Preemergence weed control under flooded paddy conditions; type: in vivo, Echinochloa oryzoides; conditions: rated 3-4 weeks after treatment
Outline: as §3

## CCOC(=O)CN1C(=O)C(Br)SC1=Nc1cc(-n2c(=O)cc(C(F)(F)F)n(C)c2=O)c(F)cc1Cl (stereo not drawn) [Compound 153, Ethyl 5-bromo-2-[{2-chloro-5-[3,6-dihydro-3-methyl-2,6-dioxo-4-(trifluoromethyl)-1(2H)-pyrimidinyl]-4-fluorophenyl}imino}-4-oxo-3-thiazolidineacetate]
[1]; 0.0625 kg/ha
  herbicidal effect rating, CYPSE: 0.0
[1]; 0.1250 kg/ha
  herbicidal effect rating, CYPSE: 0.0
[1]; 0.2500 kg/ha
  herbicidal effect rating, CYPSE: 0.0
[2]; rate 0.1250 kg/ha
  Preemergence herbicidal rating ZEAMX: 0.0
[2]; rate 0.2500 kg/ha
  Preemergence herbicidal rating ZEAMX: 0.0
[3]; rate 0.0156 kg/ha
  Herbicidal rating GALAP: 0.0
[3]; rate 0.0313 kg/ha
  Herbicidal rating GALAP: 0.0
[3]; rate 0.0625 kg/ha
  Herbicidal rating GALAP: 0.0
[4]; 0.0625 kg/ha
  herbicidal effect rating, CYPIR: 0.0
[4]; 0.1250 kg/ha
  herbicidal effect rating, CYPIR: 0.0
[4]; 0.2500 kg/ha
  herbicidal effect rating, CYPIR: 3.0
[5]; rate 0.1250 kg/ha
  Preemergence herbicidal rating ORYSAT: 0.0
[5]; rate 0.2500 kg/ha
  Preemergence herbicidal rating ORYSAT: 0.0
[6]; rate 0.1250 kg/ha
  Preemergence herbicidal rating TRZAWR: 0.0
[6]; rate 0.2500 kg/ha
  Preemergence herbicidal rating TRZAWR: 0.0
[7]; rate 0.0156 kg/ha
  Herbicidal rating ZEAMX: 3.0
[7]; rate 0.0313 kg/ha
  Herbicidal rating ZEAMX: 3.5
[7]; rate 0.0625 kg/ha
  Herbicidal rating ZEAMX: 4.5
[8]; rate 0.1250 kg/ha
  Preemergence herbicidal rating AMBEL: 0.0
[8]; rate 0.2500 kg/ha
  Preemergence herbicidal rating AMBEL: 1.0
[9]; rate 0.1250 kg/ha
  Preemergence herbicidal rating IPOHE: 1.0
[9]; rate 0.2500 kg/ha
  Preemergence herbicidal rating IPOHE: 0.0
[10]; rate 0.1250 kg/ha
  Preemergence herbicidal rating CHEAL: 1.0
[10]; rate 0.2500 kg/ha
  Preemergence herbicidal rating CHEAL: 7.0
[11]; rate 0.0156 kg/ha
  Herbicidal rating CASOB: 0.0
[11]; rate 0.0313 kg/ha
  Herbicidal rating CASOB: 0.0
[11]; rate 0.0625 kg/ha
  Herbicidal rating CASOB: 1.0
[12]; 0.0625 kg/ha
  herbicidal effect rating, ECHORC: 0.0
[12]; 0.1250 kg/ha
  herbicidal effect rating, ECHORC: 0.0
[12]; 0.2500 kg/ha
  herbicidal effect rating, ECHORC: 0.0

## Cc1ccc(CN2C(=O)CSC2=Nc2cc(-n3c(=O)cc(C(F)(F)F)n(C)c3=O)c(F)cc2Cl)cc1Cl [Compound 149, 3-{4-Chloro-5-{[3-(3-chloro-4-methylbenzyl)-4-oxo-2-thiazolidinylidene]amino}-2-fluorophenyl}-1-methyl-6-(trifluoromethyl)-2,4(1H,3H)-pyrimidinedione]
[1]; 0.0313 kg/ha
  herbicidal effect rating, CYPSE: 0.0
[1]; 0.0625 kg/ha
  herbicidal effect rating, CYPSE: 0.0
[1]; 0.1250 kg/ha
  herbicidal effect rating, CYPSE: 0.0
[1]; 0.2500 kg/ha
  herbicidal effect rating, CYPSE: 0.0
[2]; rate 0.1250 kg/ha
  Preemergence herbicidal rating ZEAMX: 0.0
[2]; rate 0.2500 kg/ha
  Preemergence herbicidal rating ZEAMX: 2.0
[3]; rate 0.0156 kg/ha
  Herbicidal rating GALAP: 0.0
[3]; rate 0.0313 kg/ha
  Herbicidal rating GALAP: 0.0
[3]; rate 0.0625 kg/ha
  Herbicidal rating GALAP: 2.0
[4]; 0.0313 kg/ha
  herbicidal effect rating, CYPIR: 3.0
[4]; 0.0625 kg/ha
  herbicidal effect rating, CYPIR: 4.0
[4]; 0.1250 kg/ha
  herbicidal effect rating, CYPIR: 7.0
[4]; 0.2500 kg/ha
  herbicidal effect rating, CYPIR: 4.0
[5]; rate 0.1250 kg/ha
  Preemergence herbicidal rating ORYSAT: 2.0
[5]; rate 0.2500 kg/ha
  Preemergence herbicidal rating ORYSAT: 2.0
[6]; rate 0.1250 kg/ha
  Preemergence herbicidal rating TRZAWR: 0.0
[6]; rate 0.2500 kg/ha
  Preemergence herbicidal rating TRZAWR: 2.0
[7]; rate 0.0156 kg/ha
  Herbicidal rating ZEAMX: 4.0
[7]; rate 0.0313 kg/ha
  Herbicidal rating ZEAMX: 4.5
[7]; rate 0.0625 kg/ha
  Herbicidal rating ZEAMX: 4.5
[8]; rate 0.1250 kg/ha
  Preemergence herbicidal rating AMBEL: 0.0
[8]; rate 0.2500 kg/ha
  Preemergence herbicidal rating AMBEL: 0.0
[9]; rate 0.1250 kg/ha
  Preemergence herbicidal rating IPOHE: 0.0
[9]; rate 0.2500 kg/ha
  Preemergence herbicidal rating IPOHE: 2.0
[10]; rate 0.1250 kg/ha
  Preemergence herbicidal rating CHEAL: 3.0
[10]; rate 0.2500 kg/ha
  Preemergence herbicidal rating CHEAL: 9.0
[11]; rate 0.0156 kg/ha
  Herbicidal rating CASOB: 0.0
[11]; rate 0.0313 kg/ha
  Herbicidal rating CASOB: 0.0
[11]; rate 0.0625 kg/ha
  Herbicidal rating CASOB: 0.0
[12]; 0.0313 kg/ha
  herbicidal effect rating, ECHORC: 2.0
[12]; 0.0625 kg/ha
  herbicidal effect rating, ECHORC: 3.0
[12]; 0.1250 kg/ha
  herbicidal effect rating, ECHORC: 6.0
[12]; 0.2500 kg/ha
  herbicidal effect rating, ECHORC: 7.0
